Data: ChEMBL document CHEMBL1127125, “Synthesis and testing of substituted phenylthioribose analogs against Klebsiella pneumoniae” (Bioorg Med Chem Lett, 1993)
In brackets after ≈: the same amount, converted by molar mass. Values belong to the compound of their own block, whether it stands above or below them.

Tests used:
Klebsiella pneumoniae [1] = assay: Minimum inhibitory concentration of compound for its inhibitory activity against Klebsiella pneumoniae growth at 2.4 ug/mL; assay type: functional
Klebsiella pneumoniae [2] = assay: Compound was tested for its ability to inhibit the growth of a clinical strain of Klebsiella pneumoniae at 0.01 ng/mL; assay type: functional, organism-based
Klebsiella pneumoniae [3] = assay: Compound was tested for its ability to inhibit the growth of a clinical strain of Klebsiella pneumoniae; assay type: functional, organism-based
[4] = Compound was tested for its ability to inhibit the growth of a clinical strain Ochromonas malhamensis; assay type: functional
Plasmodium falciparum = assay: Inhibition of Plasmodium falciparum; assay type: functional, organism-based
Klebsiella pneumoniae [5] = assay: Minimum inhibitory concentration of compound for its inhibitory activity against Klebsiella pneumoniae growth at 2.60 ug/mL; assay type: functional
Klebsiella pneumoniae [6] = assay: Minimum inhibitory concentration of compound for its inhibitory activity against Klebsiella pneumoniae growth at 20.7 ug/mL; assay type: functional
Klebsiella pneumoniae [7] = assay: Concentration required to inhibit the growth of a clinical strain of Klebsiella pneumoniae by 50%; assay type: functional, organism-based
Klebsiella pneumoniae [8] = assay: Minimum inhibitory concentration of compound for its inhibitory activity against Klebsiella pneumoniae growth at 0.002 ug/mL; assay type: functional

Compound: OC1O[C@H](CSc2ccc(Br)cc2)[C@@H](O)[C@H]1O (stereo partly specified)
MIC (Klebsiella pneumoniae [1]): 7.5 µM (≈ 2.41 µg/mL)
IC50 (Klebsiella pneumoniae [2]): 375 nM

Compound: CCSC[C@H]1OC(O)[C@H](O)[C@@H]1O (stereo partly specified)
IC50 (Klebsiella pneumoniae [3]): ~15000 µM
IC50 [4]: ~75 µM
IC50 (Plasmodium falciparum): ~300 µM

Compound: OC1O[C@H](CSc2ccc(F)cc2)[C@@H](O)[C@H]1O (stereo partly specified)
IC50 (Klebsiella pneumoniae [2]): 0.05 nM
MIC (Klebsiella pneumoniae [5]): 10 µM (≈ 2.6 µg/mL)

Compound: OC1O[C@H](CSc2ccc(C(F)(F)F)cc2)[C@@H](O)[C@H]1O (stereo partly specified)
IC50 (Klebsiella pneumoniae [7]): 0.04 µM

Continued, in another order:

MIC (Klebsiella pneumoniae [6]): 75 µM (≈ 20.8 µg/mL)
Compound: OC1O[C@H](CSc2ccc(Cl)cc2)[C@@H](O)[C@H]1O (stereo partly specified)
IC50 (Klebsiella pneumoniae [2]): 500 nM

MIC (Klebsiella pneumoniae [8]): 0.005 µM (≈ 0.00184 µg/mL)
Compound: OC1O[C@H](CSc2ccc(I)cc2)[C@@H](O)[C@H]1O (stereo partly specified)
